Reference: patent US9333202B2, “Non-retinoid antagonists for treatment of age-related macular degeneration and stargardt disease” (THE TRUSTEES OF COLUMBIA UNIVERSITY IN THE CITY OF NEW YORK, priority 2012, dated 2016)
“Also recorded” adds a separate entry of the source.

How the values were obtained:
[1] = target: RBP4-TTR interaction (Homo sapiens, UniProt P02753); experiment: HTRF/TR-FRET assay for retinol-dependent RBP4-TTR interaction (1 μM retinol); type: biochemical; set-up: human RBP4 fragment (amino acids 19-201) was expressed in the Gold(DE3)pLysS E. coli strain; made in house; host or cells: E. coli Gold(DE3)pLysS (Stratagene), pMAL-c4x vector; conditions: for IC50: in the presence of 1 μM retinol, each value one experiment, read-out: IC50 in HTRF-based retinol-dependent RBP4-TTR interaction assay
Source text: Bacterially expressed MBP-RBP4 and untagged TTR were used in this assay. For the use in the TR-FRET assay the maltose binding protein (MBP)-tagged human RBP4 fragment (amino acids 19-201) was expressed in the Gold(DE3)pLysS E. coli strain (Stratagene) using the […] vector. Following cell lysis, recombinant RBP4 was purified from the soluble fraction using the ACTA FPLC system (GE Healthcare) equipped with the 5-ml the MBP Trap HP column. Human untagged TTR was purchased from Calbiochem. Untagged TTR was labeled directly with Eu^3+ Cryptate-NHS using the HTRF Cryptate Labeling kit from CisBio following the manufacturer's recommendations. HTRF assay was performed in white low volume 384 well plates (Greiner-Bio) in a final assay volume of 16 μl per well. The reaction buffer contained 10 mM Tris-HCl pH 7.5, 1 mM DTT, 0.05% NP-40, 0.05% Prionex, 6% glycerol, and 400 mM KF. Each reaction contained 60 nM MBP-RBP4 and 2 nM TTR-Eu along with 26.7 nM of anti-MBP antibody conjugated with d2 (Cisbio). Titration of test compounds in this assay was conducted in the presence of 1 μM retinol. All reactions were assembled in the dark under dim red light and incubated overnight at +4° C. wrapped in aluminum foil. TR-FRET signal was measured in the SpectraMax M5e Multimode Plate Reader (Molecular Device). Fluorescence was excited at 337 nm and two readings per well were taken: Reading 1 for time-gated energy transfer from Eu(K) to d2 (337 nm excitation, 668 nm emission, counting delay 75 microseconds, counting window 100 microseconds) and Reading 2 for Eu(K) time-gated fluorescence (337 nm excitation, 620 nm emission, counting delay 400 microseconds, counting window 400 microseconds). The TR-FRET signal was expressed as the ratio of fluorescence intensity: Flu665/Flu620×10,000.

[2] = target: T1, human RBP4 (Homo sapiens, UniProt P02753); experiment: Scintillation proximity (SPA) RBP4 binding assay; conditions: for IC50: 10 nM 3H-retinol, 50 nM biotinylated RBP4, each value one experiment, read-out: IC50 in SPA-based RBP4 binding assay
T1 construct: Untagged human RBP4 purified from urine of tubular proteinuria patients; purchased Fitzgerald Industries International; host or cells: human urine (tubular proteinuria patients)
Experimental: Untagged human RBP4 purified from urine of tubular proteinuria patients was purchased from Fitzgerald Industries International. It was biotinylated using the EZ-Link Sulfo-NHS-LC-Biotinylation kit from Pierce following the manufacturer's recommendations. Binding experiments were performed in 96-well plates (OptiPlate, PerkinElmer) in a final assay volume of 100 μl per well in SPA buffer (1×PBS, pH 7.4, 1 mM EDTA, 0.1% BSA, 0.5% CHAPS). The reaction mix contained 10 nM ^3H-Retinol (48.7 Ci/mmol; PerkinElmer), 0.3 mg/well Streptavidin-PVT beads, 50 nM biotinylated RBP4 and a test compound. Nonspecific binding was determined in the presence of 20 μM of unlabeled retinol. The reaction mix was assembled in the dark under dim red light. The plates were sealed with clear tape (TopSeal-A: 96-well microplate, PerkinElmer), wrapped in the aluminum foil, and allowed to equilibrate 6 hours at room temperature followed by overnight incubation at +4° C. Radiocounts were measured using a TopCount NXT counter (Packard Instrument Company).

SMILES	Antagonism of RBP4-TTR interaction in vitro (in words) [1]	also measured
FC(F)(F)c1ccnc(N2CCC(c3ccccc3C(F)(F)F)CC2)n1 [Compound 44]	antagonize RBP4-TTR interaction in vitro at biologically significant concentrations	–
O=C(c1ccc(Cl)c(C(F)(F)F)c1)N1CCC(c2ccccc2C(F)(F)F)CC1 [Compound 36]	antagonize RBP4-TTR interaction in vitro at biologically significant concentrations	–
FC(F)(F)c1cccc(CCN2CCN(c3ncnc4sc5c(c34)CCC5)CC2)c1 [Compound 20]	antagonize RBP4-TTR interaction in vitro at biologically significant concentrations	–
O=C(O)c1cc(-c2ccc(F)cc2)ccc1NC(=O)N1CCC(c2ccccc2C(F)(F)F)CC1 [Compound 57]	antagonize RBP4-TTR interaction in vitro at biologically significant concentrations	–
O=C(O)c1cc(-c2ccccc2)ccc1NC(=O)N1CCC(c2ccccc2C(F)(F)F)CC1 [Compound 56]	antagonize RBP4-TTR interaction in vitro at biologically significant concentrations	–
Cn1nc(C(F)(F)F)cc1C(=O)N1CCC(c2ccccc2C(F)(F)F)CC1 [Compound 52]	antagonize RBP4-TTR interaction in vitro at biologically significant concentrations	–
O=C(c1c[nH]cn1)N1CCC(c2ccccc2C(F)(F)F)CC1 [Compound 48]	antagonize retinol-dependent RBP4-TTR interaction	IC50 [1]: 106 nM; Binding to RBP4 in vitro (in words) [2]: bind to RBP4; IC50 [2]: 5.68 nM
O=C(c1ccco1)N1CCC(c2ccccc2C(F)(F)F)CC1 [Compound 55]	antagonize RBP4-TTR interaction in vitro at biologically significant concentrations	–
COC(=O)c1ccccc1NC(=O)N1CCC(c2ccccc2C(F)(F)F)CC1 [Compound 59]	antagonize RBP4-TTR interaction in vitro at biologically significant concentrations	–
COC(=O)c1cc(Br)ccc1NC(=O)N1CCC(c2ccccc2C(F)(F)F)CC1 [Compound 61]	antagonize RBP4-TTR interaction in vitro at biologically significant concentrations	–
Cc1ccnc(N2CCC(c3ccccc3C(F)(F)F)CC2)n1 [Compound 43]	antagonize RBP4-TTR interaction in vitro at biologically significant concentrations	–
FC(F)(F)c1cccc(CCN2CCN(c3ncccc3C(F)(F)F)CC2)c1 [Compound 17]	antagonize RBP4-TTR interaction in vitro at biologically significant concentrations	–
Cn1cncc1C(=O)N1CCC(c2ccccc2C(F)(F)F)CC1 [Compound 51]	antagonize RBP4-TTR interaction in vitro at biologically significant concentrations	–
Fc1cnc(N2CCC(c3ccccc3C(F)(F)F)CC2)nc1 [Compound 47]	antagonize RBP4-TTR interaction in vitro at biologically significant concentrations	–
O=C(c1nccs1)N1CCC(c2ccccc2C(F)(F)F)CC1 [Compound 54]	antagonize RBP4-TTR interaction in vitro at biologically significant concentrations	–
COC(=O)c1cccc(C(=O)N2CCC(c3ccccc3C(F)(F)F)CC2)c1 [Compound 37]	antagonize RBP4-TTR interaction in vitro at biologically significant concentrations	–
O=C(Cc1ccccc1C(F)(F)F)N1CCN(c2ncnc3sc4c(c23)CCC4)CC1 [Compound 22]	antagonize RBP4-TTR interaction in vitro at biologically significant concentrations	–
O=C(c1cnccc1C(F)(F)F)N1CCC(c2ccccc2C(F)(F)F)CC1 [Compound 40]	antagonize RBP4-TTR interaction in vitro at biologically significant concentrations	–

SMILES	Antagonism of RBP4-TTR interaction in vitro (in words) [1]	also measured
CS(=O)(=O)c1ccc(NC(=O)N2CCC(c3ccccc3C(F)(F)F)CC2)c(C(=O)O)c1 [Compound 64]	antagonize retinol-dependent RBP4-TTR interaction; also recorded: antagonize RBP4-TTR interaction in vitro at biologically significant concentrations	IC50 [1]: 1270 nM; Binding to RBP4 in vitro (in words) [2]: bind to RBP4; IC50 [2]: 49.8 nM
FC(F)(F)c1ccccc1C1CCN(c2ncccn2)CC1 [Compound 42]	antagonize RBP4-TTR interaction in vitro at biologically significant concentrations	–
O=C(c1cccc(C(F)(F)F)c1)N1CCC(c2ccccc2C(F)(F)F)CC1 [Compound 34]	antagonize RBP4-TTR interaction in vitro at biologically significant concentrations	–
O=C(c1cc(C(F)(F)F)[nH]n1)N1CCC(c2ccccc2C(F)(F)F)CC1 [Compound 53]	antagonize RBP4-TTR interaction in vitro at biologically significant concentrations	–
O=C(Cc1ccccc1C(F)(F)F)N1CCC(c2ccccc2C(F)(F)F)CC1 [Compound 38]	antagonize RBP4-TTR interaction in vitro at biologically significant concentrations	–
O=C(c1cn(Cc2ccccc2)cn1)N1CCC(c2ccccc2C(F)(F)F)CC1 [Compound 50]	antagonize RBP4-TTR interaction in vitro at biologically significant concentrations	–
CS(=O)(=O)c1ccc(-c2ccc(NC(=O)N3CCC(c4ccccc4C(F)(F)F)CC3)c(C(=O)O)c2)cc1 [Compound 58]	antagonize RBP4-TTR interaction in vitro at biologically significant concentrations	–
FC(F)(F)c1ccccc1C1CCN(c2nccc(-c3ccccc3)n2)CC1 [Compound 46]	antagonize RBP4-TTR interaction in vitro at biologically significant concentrations	–
FC(F)(F)c1cccc(CN2CCN(c3ncnc4sc5c(c34)CCC5)CC2)c1 [Compound 21]	antagonize RBP4-TTR interaction in vitro at biologically significant concentrations	–
O=C(c1ccc(C(F)(F)F)c(F)c1)N1CCC(c2ccccc2C(F)(F)F)CC1 [Compound 33]	antagonize RBP4-TTR interaction in vitro at biologically significant concentrations	–
Cn1cnc(C(=O)N2CCC(c3ccccc3C(F)(F)F)CC2)c1 [Compound 49]	antagonize RBP4-TTR interaction in vitro at biologically significant concentrations	–
O=C(c1cc(C(F)(F)F)ccn1)N1CCC(c2ccccc2C(F)(F)F)CC1 [Compound 41]	antagonize RBP4-TTR interaction in vitro at biologically significant concentrations	–
O=C(c1ccnc(C(F)(F)F)c1)N1CCC(c2ccccc2C(F)(F)F)CC1 [Compound 39]	antagonize RBP4-TTR interaction in vitro at biologically significant concentrations	–
COC(=O)c1cc(C)nc(N2CCC(c3ccccc3C(F)(F)F)CC2)n1 [Compound 45]	antagonize RBP4-TTR interaction in vitro at biologically significant concentrations	–
COC(=O)c1ccc(Cl)cc1NC(=O)N1CCC(c2ccccc2C(F)(F)F)CC1 [Compound 60]	antagonize RBP4-TTR interaction in vitro at biologically significant concentrations	–
O=C(c1ccc(F)c(C(F)(F)F)c1)N1CCC(c2ccccc2C(F)(F)F)CC1 [Compound 35]	antagonize RBP4-TTR interaction in vitro at biologically significant concentrations	–
O=C(c1ccc(C(F)(F)F)cc1F)N1CCC(c2ccccc2C(F)(F)F)CC1 [Compound 32]	antagonize RBP4-TTR interaction in vitro at biologically significant concentrations	–
O=C(O)c1ccccc1NC(=O)N1CCN(c2ncncc2C(F)(F)F)CC1 [Compound 63]	antagonize RBP4-TTR interaction in vitro at biologically significant concentrations	–
